Patent US20260091078A1, “OLIGOPEPTIDE THAT INHIBITS ANGIOGENESIS AND VASCULAR FUNCTION” (UNIVERSIDAD NACIONAL AUTONOMA DE MEXICO, priority 2019, published 2026)

Legend:
[1] = tested on: human endothelial cells from the umbilical-vein (HUVEC); assay: Formation of capillary structures by HUVEC on Matrigel; format: cell-based; settings: 100 nM, 6 hours
Procedure: For investigating whether the oligopeptide THGRGFI shares this property, a primary culture of human endothelial cells from the umbilical-vein (HUVEC) was maintained in F12K media supplemented with 20% FBS, 100 μg ml^−1 of heparin, and 25 μg ml^−1 endothelial cell growth supplement (ECGS). Cells from passages 2 to 4 were rinsed with tempered PBS1x and were detached from the plate with 0.25% trypsin-EDTA for ˜3 minutes and centrifuged to remove trypsin. The cells were counted using an hemocytometer and seeded at a density of 29,000 cells cm^−2 in 300 μl of F12K medium supplemented with 20% FBS and with heparin on a 24-well plate, over a layer of ˜9.7 μg μl^−1 Matrigel™ which was previously polymerized for 1 hour at 37° C. Cells were then treated with 100 nM vasoinhibin or the oligopeptide THGRGFI, and after 6 hours, micrographs were obtained in an inverted microscope. The images were analyzed to quantify main joining areas per field using the software “Angiogenesis Analyzer” [Gilles Carpentier. ImageJ contribution: Angiogenesis Analyzer. ImageJ News, 5 Oct. 2012.] and the ImageJ software.

[2] = tested on: VEGF-induced retinal vasopermeability; assay: Vasopermeability in vivo: VEGF-induced retinal albumin extravasation (Evans blue method); settings: Wistar rats, intravitreal, 20 μM with 300 ng VEGF, 24 hours
Procedure: For evaluating if the oligopeptide THGRGFI conserves the inhibitory properties of vasoinhibin on VEGF-induced vasopermeability in vivo, the effect of the intravitreal injection of VEGF alone or in combination with the oligopeptide or vasoinhibin in rats was determined.
Wistar rats were intravitreally injected with saline (control) or with 300 ng of VEGF in each case alone or in combination with 20 μM of the oligopeptide of the invention or with 20 μM of vasoinhibin. After 24 hours, the extravasation of albumin into the retina was evaluated using the Evans blue method. Briefly, 45 mg kg^−1 of total weight of the Evans blue dye was injected intravenously to anesthetized rats and was allowed to circulate for 2 hours. Then, the animals were perfused with ˜80 ml of PBS at a flow of ˜40 ml min^−1. The retinas were dissected, dried and incubated with 200 μl of formamide (Mallinckrodt Baker, Phillipsburg, NJ) at 72° C. and after 18 hours the labeled albumin was determined in the retinal extracts.

[3] = tested on: BUVEC E6E7; assay: Vasopermeability in vitro: transendothelial electrical resistance (TEER); format: cell-based, bovine; settings: BUVEC E6E7 monolayer, 100 nM, 50 ng ml^-1 VEGF, up to 120 minutes
Procedure: Another conventional protocol to evaluate vasopermeability is the measurement of the transendothelial electrical resistance (TEER), which uses a device that applies an electric current through electrodes at both sides of the endothelial cell monolayer. […] The effect of the oligopeptide THGRGFI on endothelial cell permeability was evaluated by measuring TEER. BUVEC E6E7 were seeded in the TEER device at a density of 10,000 cells cm^−2. After three days, the monolayers were starved in low serum media (0.1% FBS) for 48 hours and after this time, 100 nM of vasoinhibin or of the oligopeptide were added to the upper compartment (luminal surface of the monolayer) for 1 hour. At time 0, TEER was recorded and 50 ng ml^−1 of VEGF were added to the luminal side. The TEER was measured at 10, 20, 30, 60, 90 and 120 minutes. Determinations were performed with the Epithelial Volt/Ohm (TEER) EVOM2 equipment (World Precision Instruments, FL, USA) with a 4 mm ‘chopstick’ electrode. Values were normalized relative to a device with no cells and a monolayer without treatment.

[4] = tested on: interleukin-1α (IL-1α); assay: Expression of vasoinhibin target gene IL-1α mRNA in BUVEC E6E7 (qPCR); format: cell-based, bovine; settings: BUVEC E6E7, 100 nM, 4 hours
Procedure: Vasoinhibin induces the expression of a variety of genes via the activation of NF-KB to promote angiostatic and inflammatory effects. In particular, interleukin-1 alpha (IL-1α) and the intercellular adhesion molecule 1 (ICAM1) are vasoinhibin gene targets in the bovine endothelial cells. To evaluate the ability of the oligopeptide […] to induce the expression of IL-1α and ICAM1, BUVEC […] cells were seeded on 12 well plates with F12K-10% FBS, grown to 80% confluency, and starved with low serum (0.1% FBS) culture medium for 24 h. […] After 4 hours the RNA was extracted from the cells using Trizol (Invitrogen, Carlsbad, CA) and retrotranscribed using the High Capacity cDNA Reverse Transcription Kit (Applied Biosystems, Foster City, CA). The RT-PCR products were quantified in a Maxima SYBRgreen qPCR (Thermo Fisher Scientific) 10 μl final volume reaction mixture containing the template and 0.25 μM of each primer. The PCR amplification was done in the CFX96 Real Time PCR (BioRad), comprising a 10-minute denaturalization at 95° C., followed by 35 amplification cycles (95° C. for 10 sec, 58° C. for 30 sec, and 72° C. for 30 sec). […] The PCR data was analyzed by the 2^-ΔΔCT method and the threshold of the cycles (CT) was normalized by the constitutive housekeeping gene cyclophilin A (PPIA). […]

Ac-THGRGFI-NH2 [THGRGFI, Thr His Gly Arg Gly Phe Ile]
effect on capillary structures (main joining areas per field) [1]: disrupted the capillary structures
inhibition of VEGF-induced retinal vasopermeability [2]: blocks the VEGF increase in retinal vasopermeability
effect on VEGF-induced reduction of transendothelial resistance (TEER) [3]: block the VEGF effect
fold-change of expression of IL-1α mRNA versus non-treated control [4]: ~30 fold
